Data on 14 compounds can be found in ChEMBL document CHEMBL3991601, “The target landscape of clinical kinase drugs” (Science, 2017).

As usually defined, the Kd is a measure of binding affinity in units of concentration.

Calls of active or inactive are those of the source. Cut-off read from the data, not from the text of the source, for most assays here: actives have a measured Kd and inactives only a lower limit. A value given as a limit tells only on which side of the number the result lay.

Test [1] has as its target Cyclin-dependent kinase 13 (Homo sapiens, UniProt Q14004).
Test [2] concerns the target Casein kinase II subunit alpha' (Homo sapiens, UniProt P19784).
In the next test the target is T1, Ephrin type-B receptor 2 (Homo sapiens, UniProt P29323).
T1 sequence (P29323 whole entry): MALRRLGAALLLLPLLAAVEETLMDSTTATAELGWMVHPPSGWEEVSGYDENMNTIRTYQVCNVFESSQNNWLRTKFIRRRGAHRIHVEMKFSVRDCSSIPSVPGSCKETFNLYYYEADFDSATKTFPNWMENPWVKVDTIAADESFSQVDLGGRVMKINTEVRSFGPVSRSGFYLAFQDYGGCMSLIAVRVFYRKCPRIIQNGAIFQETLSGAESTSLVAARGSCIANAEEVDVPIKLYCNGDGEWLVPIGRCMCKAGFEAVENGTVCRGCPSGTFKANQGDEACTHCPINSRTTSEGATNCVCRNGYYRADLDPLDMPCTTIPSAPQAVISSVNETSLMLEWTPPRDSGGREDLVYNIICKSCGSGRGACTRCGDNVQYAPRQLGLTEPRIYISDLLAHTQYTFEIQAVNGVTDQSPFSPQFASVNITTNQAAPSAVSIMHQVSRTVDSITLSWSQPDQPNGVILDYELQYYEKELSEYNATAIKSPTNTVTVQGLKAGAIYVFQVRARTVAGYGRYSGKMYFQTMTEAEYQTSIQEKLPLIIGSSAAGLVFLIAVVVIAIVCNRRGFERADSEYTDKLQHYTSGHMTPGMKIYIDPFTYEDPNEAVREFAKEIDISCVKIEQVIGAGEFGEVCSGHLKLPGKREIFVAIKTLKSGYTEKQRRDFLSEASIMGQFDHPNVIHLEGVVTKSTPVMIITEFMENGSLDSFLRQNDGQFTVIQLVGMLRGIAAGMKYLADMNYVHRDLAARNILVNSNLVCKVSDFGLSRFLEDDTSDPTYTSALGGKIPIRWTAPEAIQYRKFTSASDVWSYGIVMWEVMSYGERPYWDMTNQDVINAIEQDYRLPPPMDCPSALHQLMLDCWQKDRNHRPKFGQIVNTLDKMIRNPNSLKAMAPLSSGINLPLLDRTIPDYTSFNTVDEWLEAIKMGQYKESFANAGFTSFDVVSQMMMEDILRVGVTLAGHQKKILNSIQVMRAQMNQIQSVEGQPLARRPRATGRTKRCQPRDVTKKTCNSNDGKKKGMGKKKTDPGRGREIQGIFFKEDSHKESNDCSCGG

In a further test the target is T2, Heme oxygenase 2 (Homo sapiens, UniProt P30519).
T2 sequence (P30519 whole entry): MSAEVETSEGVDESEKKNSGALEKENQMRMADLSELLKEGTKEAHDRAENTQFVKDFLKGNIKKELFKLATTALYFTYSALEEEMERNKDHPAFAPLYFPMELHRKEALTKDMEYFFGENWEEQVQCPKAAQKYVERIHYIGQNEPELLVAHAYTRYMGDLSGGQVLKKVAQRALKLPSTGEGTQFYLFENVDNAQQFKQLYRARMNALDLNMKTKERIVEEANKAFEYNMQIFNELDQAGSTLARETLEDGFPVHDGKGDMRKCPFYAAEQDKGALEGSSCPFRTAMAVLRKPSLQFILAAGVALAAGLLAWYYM

In test [3] the target is T3, Exosome RNA helicase MTR4 (Homo sapiens, UniProt P42285).
T3 sequence (P42285 whole entry): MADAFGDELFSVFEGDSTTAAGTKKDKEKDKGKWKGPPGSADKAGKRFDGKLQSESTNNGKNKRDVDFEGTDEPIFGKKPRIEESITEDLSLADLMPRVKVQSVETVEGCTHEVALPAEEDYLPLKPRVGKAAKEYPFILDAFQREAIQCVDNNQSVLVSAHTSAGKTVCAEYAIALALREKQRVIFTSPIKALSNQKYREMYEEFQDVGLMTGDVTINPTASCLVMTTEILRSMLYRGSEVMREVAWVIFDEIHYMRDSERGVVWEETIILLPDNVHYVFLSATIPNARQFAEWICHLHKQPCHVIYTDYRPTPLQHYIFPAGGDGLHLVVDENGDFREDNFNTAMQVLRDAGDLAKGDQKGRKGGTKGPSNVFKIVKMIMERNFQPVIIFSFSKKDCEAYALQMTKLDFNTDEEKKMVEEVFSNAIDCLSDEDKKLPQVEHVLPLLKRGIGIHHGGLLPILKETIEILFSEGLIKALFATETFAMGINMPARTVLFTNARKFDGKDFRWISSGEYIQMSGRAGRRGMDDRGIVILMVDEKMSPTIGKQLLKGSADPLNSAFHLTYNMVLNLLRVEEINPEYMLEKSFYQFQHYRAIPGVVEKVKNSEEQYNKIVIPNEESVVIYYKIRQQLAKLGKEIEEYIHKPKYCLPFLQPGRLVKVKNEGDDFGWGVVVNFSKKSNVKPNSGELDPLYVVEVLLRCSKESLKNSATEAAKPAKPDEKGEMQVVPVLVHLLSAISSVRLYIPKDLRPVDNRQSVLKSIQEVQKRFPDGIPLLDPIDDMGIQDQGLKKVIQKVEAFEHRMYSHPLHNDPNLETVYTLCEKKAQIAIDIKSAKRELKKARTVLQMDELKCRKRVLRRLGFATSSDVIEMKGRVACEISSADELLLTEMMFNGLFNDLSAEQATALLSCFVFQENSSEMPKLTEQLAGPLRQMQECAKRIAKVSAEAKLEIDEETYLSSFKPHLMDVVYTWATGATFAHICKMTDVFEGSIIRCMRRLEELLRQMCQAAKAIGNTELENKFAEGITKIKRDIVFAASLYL

For the next test, the target named is TGF-beta receptor type-2 (Homo sapiens, UniProt P37173).
The target of test [4] is Mitogen-activated protein kinase kinase kinase 20 (Homo sapiens, UniProt Q9NYL2).
Test [5] has as its target cAMP-dependent protein kinase type II-alpha regulatory subunit (Homo sapiens, UniProt P13861).
Note: in the data inactive means no Kd found up to 30 µM.

Cyclin-dependent kinase 13, sequence (Q14004 whole entry): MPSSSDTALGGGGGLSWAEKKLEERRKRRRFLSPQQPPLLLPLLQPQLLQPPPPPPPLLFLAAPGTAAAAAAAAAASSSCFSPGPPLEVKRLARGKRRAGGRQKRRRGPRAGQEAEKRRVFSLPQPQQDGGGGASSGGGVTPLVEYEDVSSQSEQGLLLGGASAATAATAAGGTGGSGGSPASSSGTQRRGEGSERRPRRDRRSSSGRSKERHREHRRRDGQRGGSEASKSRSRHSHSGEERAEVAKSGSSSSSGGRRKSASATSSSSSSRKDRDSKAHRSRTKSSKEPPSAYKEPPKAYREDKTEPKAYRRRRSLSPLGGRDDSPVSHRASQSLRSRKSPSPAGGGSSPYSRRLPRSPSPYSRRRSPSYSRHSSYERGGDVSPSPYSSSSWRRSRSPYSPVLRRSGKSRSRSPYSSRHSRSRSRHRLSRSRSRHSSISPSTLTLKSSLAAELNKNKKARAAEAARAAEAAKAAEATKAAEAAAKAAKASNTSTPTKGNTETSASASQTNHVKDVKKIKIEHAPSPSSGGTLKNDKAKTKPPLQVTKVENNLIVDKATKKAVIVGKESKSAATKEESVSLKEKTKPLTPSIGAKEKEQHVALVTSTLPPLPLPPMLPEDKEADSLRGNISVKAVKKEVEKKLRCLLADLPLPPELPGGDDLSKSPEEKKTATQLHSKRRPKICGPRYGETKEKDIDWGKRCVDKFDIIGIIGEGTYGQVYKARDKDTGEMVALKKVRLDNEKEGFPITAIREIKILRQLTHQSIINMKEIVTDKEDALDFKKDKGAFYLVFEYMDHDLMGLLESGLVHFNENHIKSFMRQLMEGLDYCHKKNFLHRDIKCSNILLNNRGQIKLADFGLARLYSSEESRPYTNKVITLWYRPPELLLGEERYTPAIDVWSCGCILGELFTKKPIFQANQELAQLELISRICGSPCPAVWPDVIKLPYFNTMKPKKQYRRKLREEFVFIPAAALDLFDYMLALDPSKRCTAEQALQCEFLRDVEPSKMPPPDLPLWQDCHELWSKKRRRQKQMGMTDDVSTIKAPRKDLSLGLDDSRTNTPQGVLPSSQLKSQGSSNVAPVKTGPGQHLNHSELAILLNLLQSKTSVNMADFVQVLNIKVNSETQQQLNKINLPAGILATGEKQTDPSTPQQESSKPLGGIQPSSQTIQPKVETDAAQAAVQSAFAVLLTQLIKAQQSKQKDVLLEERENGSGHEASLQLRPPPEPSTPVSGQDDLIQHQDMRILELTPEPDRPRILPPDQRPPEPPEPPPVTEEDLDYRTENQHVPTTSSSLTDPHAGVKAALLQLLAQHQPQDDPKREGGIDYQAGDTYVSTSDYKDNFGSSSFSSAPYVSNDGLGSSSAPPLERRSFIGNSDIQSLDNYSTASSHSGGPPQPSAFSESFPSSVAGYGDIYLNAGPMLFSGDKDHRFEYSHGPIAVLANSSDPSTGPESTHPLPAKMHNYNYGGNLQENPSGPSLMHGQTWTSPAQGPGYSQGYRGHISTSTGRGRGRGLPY
TGF-beta receptor type-2, sequence (P37173 whole entry): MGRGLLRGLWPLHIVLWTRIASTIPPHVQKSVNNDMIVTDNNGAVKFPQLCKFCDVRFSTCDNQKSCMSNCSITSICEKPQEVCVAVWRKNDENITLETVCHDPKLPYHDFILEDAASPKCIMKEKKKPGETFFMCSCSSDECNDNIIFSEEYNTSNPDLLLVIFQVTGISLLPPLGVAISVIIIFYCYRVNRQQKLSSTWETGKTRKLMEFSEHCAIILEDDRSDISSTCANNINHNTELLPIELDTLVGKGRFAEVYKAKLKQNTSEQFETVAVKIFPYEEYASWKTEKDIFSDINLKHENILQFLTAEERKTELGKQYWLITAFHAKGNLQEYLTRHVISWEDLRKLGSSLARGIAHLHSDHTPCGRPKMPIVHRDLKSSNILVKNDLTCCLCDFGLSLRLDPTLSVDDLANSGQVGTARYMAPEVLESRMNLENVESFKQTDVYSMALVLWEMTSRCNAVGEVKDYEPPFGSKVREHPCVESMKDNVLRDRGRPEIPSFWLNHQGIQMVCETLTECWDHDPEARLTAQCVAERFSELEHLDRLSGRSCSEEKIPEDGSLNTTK
Casein kinase II subunit alpha', sequence (P19784 whole entry): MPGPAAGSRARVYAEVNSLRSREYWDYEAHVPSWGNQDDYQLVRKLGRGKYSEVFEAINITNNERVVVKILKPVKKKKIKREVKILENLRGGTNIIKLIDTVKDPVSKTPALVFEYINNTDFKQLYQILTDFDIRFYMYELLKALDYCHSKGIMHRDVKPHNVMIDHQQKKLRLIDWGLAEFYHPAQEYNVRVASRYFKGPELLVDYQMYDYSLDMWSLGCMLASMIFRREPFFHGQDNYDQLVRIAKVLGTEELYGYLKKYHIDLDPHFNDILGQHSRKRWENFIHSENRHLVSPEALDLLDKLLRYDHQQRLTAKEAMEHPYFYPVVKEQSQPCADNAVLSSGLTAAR
Mitogen-activated protein kinase kinase kinase 20, sequence (Q9NYL2 whole entry): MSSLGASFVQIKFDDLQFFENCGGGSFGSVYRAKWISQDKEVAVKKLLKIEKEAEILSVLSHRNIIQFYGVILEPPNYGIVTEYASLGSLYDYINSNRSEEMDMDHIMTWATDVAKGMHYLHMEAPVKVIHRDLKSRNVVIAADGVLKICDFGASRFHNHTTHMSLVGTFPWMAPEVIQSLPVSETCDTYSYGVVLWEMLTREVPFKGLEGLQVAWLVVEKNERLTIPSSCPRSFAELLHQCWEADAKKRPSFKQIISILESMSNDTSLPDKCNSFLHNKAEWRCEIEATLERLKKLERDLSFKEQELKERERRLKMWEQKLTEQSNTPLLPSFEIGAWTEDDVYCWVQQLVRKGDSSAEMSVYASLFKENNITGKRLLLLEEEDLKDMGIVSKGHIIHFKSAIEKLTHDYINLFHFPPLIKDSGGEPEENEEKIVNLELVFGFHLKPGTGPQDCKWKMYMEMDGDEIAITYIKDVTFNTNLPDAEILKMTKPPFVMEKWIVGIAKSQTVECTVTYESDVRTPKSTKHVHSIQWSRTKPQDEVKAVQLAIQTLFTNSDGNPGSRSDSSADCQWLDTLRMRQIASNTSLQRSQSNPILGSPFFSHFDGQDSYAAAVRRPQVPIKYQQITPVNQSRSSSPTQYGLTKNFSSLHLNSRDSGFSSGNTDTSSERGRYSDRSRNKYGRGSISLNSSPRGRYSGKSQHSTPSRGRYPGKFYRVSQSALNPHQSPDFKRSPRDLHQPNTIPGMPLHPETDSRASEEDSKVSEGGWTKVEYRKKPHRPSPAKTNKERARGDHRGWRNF
cAMP-dependent protein kinase type II-alpha regulatory subunit, sequence (P13861 whole entry): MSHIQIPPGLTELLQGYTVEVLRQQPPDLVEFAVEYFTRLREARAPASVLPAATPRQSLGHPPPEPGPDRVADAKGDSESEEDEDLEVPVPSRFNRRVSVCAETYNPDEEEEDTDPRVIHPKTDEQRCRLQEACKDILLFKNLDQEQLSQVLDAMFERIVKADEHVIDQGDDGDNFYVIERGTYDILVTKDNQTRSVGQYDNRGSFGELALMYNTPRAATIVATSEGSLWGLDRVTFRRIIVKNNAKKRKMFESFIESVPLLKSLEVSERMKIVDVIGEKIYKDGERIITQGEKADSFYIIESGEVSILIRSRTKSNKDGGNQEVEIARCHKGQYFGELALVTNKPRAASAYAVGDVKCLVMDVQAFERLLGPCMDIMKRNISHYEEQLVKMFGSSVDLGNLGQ

As to `C[C@@H](Oc1cc(C(=O)Nc2ccc(C(=O)N3CCN(C)CC3)cc2)nnc1N)c1c(Cl)ccc(F)c1Cl`, the Kd (in test [1]; in test [2]; at Ephrin type-B receptor 2; at Heme oxygenase 2; in test [3]; on TGF-beta receptor type-2) was > 30 µM (inactive) throughout. The Kd in test [4] is > 30 µM (inactive).
Turning to `CC(=O)c1cnc2ccc(-c3cc(Cl)c(O)c(Cl)c3)nc2c1N[C@H]1CC[C@H](CN(C)C)CC1`, the Kd in test [1] is > 30 µM (inactive); in test [2], 0.01 µM (active); on Ephrin type-B receptor 2, 0.149 µM (active); on Heme oxygenase 2, > 30 µM (inactive); in test [5], > 30 µM (inactive); in test [3], > 30 µM (inactive). The Kd on TGF-beta receptor type-2 is > 30 µM (inactive); in test [4] it was 0.101 µM (active).
For `CCNC(=O)C#Cc1ccc2c(c1)NC(=O)/C2=C(\Nc1ccc(CN(C)C)cc1)c1ccccc1`, the Kd (in test [1]; in test [2]; on Ephrin type-B receptor 2; on Heme oxygenase 2; in test [5]; in test [3]) was > 30 µM (inactive) each time. For the same compound, the Kd (at TGF-beta receptor type-2; in test [4]) was > 30 µM (inactive) throughout.
With `C=CC(=O)N1CCC[C@H](n2c(=O)n(-c3ccc(Oc4ccccc4)cc3)c3c(N)ncnc32)C1`, the Kd (in test [1]; in test [2]; on Ephrin type-B receptor 2; on Heme oxygenase 2; in test [5]; in test [3]) was > 30 µM (inactive) each time. The Kd (at TGF-beta receptor type-2; in test [4]) was > 30 µM (inactive) each time.
As for `Cc1nc2cc(-c3nn(C(C)C)c4ncnc(N)c34)ccc2o1`, the Kd (in test [1]; in test [2]; at Ephrin type-B receptor 2; on Heme oxygenase 2; in test [5]; in test [3]) was > 30 µM (inactive) throughout. Besides, the Kd (on TGF-beta receptor type-2; in test [4]) was > 30 µM (inactive) in each case.
In the case of `COCc1c(-c2ccc(NC(=O)Nc3cc(C(F)(F)F)ccc3F)c(F)c2)c2c(N)ncnn2c1CN1CCOCC1`, the Kd (in test [1]; in test [2]; on Ephrin type-B receptor 2; on Heme oxygenase 2; in test [5]; in test [3]) was > 30 µM (inactive) in each case. The Kd (at TGF-beta receptor type-2; in test [4]) was > 30 µM (inactive) in each case.
Consider `Nc1ncnc2c1c(-c1cccc(OCc3ccccc3)c1)cn2[C@H]1C[C@@H](CN2CCC2)C1` [AEW-541], for which the Kd (in test [1]; in test [2]; at Ephrin type-B receptor 2; at Heme oxygenase 2; in test [5]; in test [3]) was > 30 µM (inactive) each time. Also, the Kd (on TGF-beta receptor type-2; in test [4]) was > 30 µM (inactive) each time.
Consider `Cc1csc(-c2nnc(Nc3ccc(Oc4ncccc4-c4ccnc(N)n4)cc3)c3ccccc23)c1` [AMG-900], for which the equilibrium dissociation constant (Kd) in test [1] was 2.51 µM; in test [2], > 30 µM (inactive); at Ephrin type-B receptor 2, > 30 µM (inactive); at Heme oxygenase 2, > 30 µM (inactive); in test [5], > 30 µM (inactive); in test [3], > 30 µM (inactive). Besides, the Kd (on TGF-beta receptor type-2; in test [4]) was > 30 µM (inactive) each time.
As to `C=CC(=O)Nc1cc2c(Nc3ccc(F)c(Cl)c3)ncnc2cc1C#CC(C)(C)N1CCN(C)CC1` [AV-412 FREE BASE], the Kd (in test [1]; in test [2]; at Ephrin type-B receptor 2; at Heme oxygenase 2; in test [5]; in test [3]) was > 30 µM (inactive) in each case. The Kd (on TGF-beta receptor type-2; in test [4]) was > 30 µM (inactive) each time.
On to `NC(=O)Nc1cc(-c2cccc(F)c2)sc1C(=O)N[C@H]1CCCNC1` [AZD-7762], for which the Kd in test [1] is > 30 µM (inactive); in test [2] it was 3.15 µM (active); at Ephrin type-B receptor 2, > 30 µM (inactive); on Heme oxygenase 2 it was > 30 µM (inactive); in test [5], > 30 µM (inactive); in test [3] it was > 30 µM (inactive). Further, the Kd (on TGF-beta receptor type-2; in test [4]) was > 30 µM (inactive) throughout.
In the case of `Cc1cc(C(=O)NOCCO)c(Nc2ccc(I)cc2F)n(C)c1=O` [AZD-8330], the Kd (in test [1]; in test [2]; on Ephrin type-B receptor 2; on Heme oxygenase 2; in test [5]; in test [3]) was > 30 µM (inactive) each time. Also, the Kd (at TGF-beta receptor type-2; in test [4]) was > 30 µM (inactive) in each case.
`Cc1nc2cc(-n3ncc(C(=O)c4cc5ccccc5[nH]4)c3N)ccc2[nH]1` [FGFR INHIBITOR DEBIO 1347]: the Kd (in test [1]; in test [2]; at Ephrin type-B receptor 2; in test [5]; in test [3]; at TGF-beta receptor type-2) was > 30 µM (inactive) throughout. In test [4], the Kd is > 30 µM (inactive).
In the case of `NC1(c2ccc(-c3nc4ccn5c(=O)[nH]nc5c4cc3-c3ccccc3)cc2)CCC1` [MK-2206], the Kd (in test [1]; in test [2]; at Ephrin type-B receptor 2; in test [5]; in test [3]; on TGF-beta receptor type-2) was > 30 µM (inactive) each time. The Kd in test [4] was > 30 µM (inactive).
Consider `C[C@@H](N)c1ccc(C(=O)Nc2ccnc3[nH]ccc23)cc1` [Y-39983], for which the Kd was > 30 µM (inactive) in test [1]; 2.74 µM (active) in test [2]; > 30 µM (inactive) at Ephrin type-B receptor 2; > 30 µM (inactive) on Heme oxygenase 2; > 30 µM (inactive) in test [3]; > 30 µM (inactive) on TGF-beta receptor type-2. Besides, the Kd in test [4] is > 30 µM (inactive).
